For 22 compounds, IC50 results are on record in patent US20240067613A1, “NOVEL QUINAZOLINE DERIVATIVES AS SOS1 INHIBITORS AND USE THEREOF” (HANMI PHARMACEUTICAL CO., LTD., priority 2020, published 2024).

For this assay, the target named is T1, SOS1 binding to KRAS G12C (Homo sapiens, UniProt Q07889).
T1 construct: consisting of amino acid residues 564 to 1049 which are the catalytic domain; purchased Reaction Biology Corporation MSC-11-502 (SOS1-Strep); MSC-11-538 (KRAS G12C)
T1 sequence (Q07889 564-1049): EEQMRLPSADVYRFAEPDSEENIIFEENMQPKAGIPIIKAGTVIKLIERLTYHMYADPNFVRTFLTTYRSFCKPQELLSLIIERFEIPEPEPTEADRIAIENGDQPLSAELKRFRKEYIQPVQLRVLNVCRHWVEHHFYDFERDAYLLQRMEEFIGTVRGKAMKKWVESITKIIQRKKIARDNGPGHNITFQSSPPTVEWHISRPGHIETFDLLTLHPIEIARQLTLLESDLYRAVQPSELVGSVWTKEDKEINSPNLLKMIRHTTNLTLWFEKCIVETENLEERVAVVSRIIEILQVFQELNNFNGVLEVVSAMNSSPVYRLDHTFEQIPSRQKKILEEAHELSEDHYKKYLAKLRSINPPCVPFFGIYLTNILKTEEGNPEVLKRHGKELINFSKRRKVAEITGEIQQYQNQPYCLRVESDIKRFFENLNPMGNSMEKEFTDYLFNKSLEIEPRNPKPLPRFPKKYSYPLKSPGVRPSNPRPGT
The assay can be described thus: SOS1 GTP substitution inhibition test (HTRF/TR-FRET, KRAS G12C-SOS1 binding inhibitory ability). The class given is biochemical. The following applies: HTRF, GST-KRAS G12C (2-169), SOS1-Strep (564-1049), 1.6, 8, 40, 200, 1,000 nM. The procedure: In order to determine whether the substitution function of SOS1 binding to KRAS G12C is inhibited by the above-described example compounds, a homogeneous time-resolved fluorescence (HTRF) test was performed using G12C(#MSC-11-538) and SOS1-Strep(#MSC-11-502) purchased from Reaction Biology Corporation (MA, USA). The activity of SOS1 enzyme was determined by measuring the amount of GTP bound to KRAS G12C proteins, using the principle of time-resolved fluorescence energy transfer (TR-FRET). Based on the principle that terbium bound to the GST-binding antibody of the GST-KRAS G12C protein acts as a donor of fluorescence resonance energy transfer (FRET), and the GTP bound to the KRAS G12C protein is labeled with the fluorescent agent DY-647P1 and acts as a receiver, when the more GTP is bound to the KRAS G12C protein by the substitution reaction of SOS1 according to this test, the higher HTRF or FRET signal is measured. To summarize, glutathione S-transferase (GST)-tagged KRAS G12C proteins (consisting of amino acid residues 2 to 169) required for the reaction, streptavidin-tagged SOS1 proteins (consisting of amino acid residues 564 to 1049 which are the catalytic domain), anti-GST antibody (#61[…]) purchased from CISBIO corporation, nucleic acid (#NU-820-647P1) purchased from Jena Bioscience GmbH were mixed in a buffer solution formed from 10 mM HEPES pH7.4, 150 mM NaCl, 5 mM MgCl2, and 1 mM dithiothreitol (DTT), and the mixture was added to a 384-well plate and reacted at room temperature. Next, FRET signals were measured with a Perkin Elmer Envision microplate reader. In this case, an excitation signal (excitation) was measured at 320 nm, and an emission signal (emission) was measured at 615/665 nm. The fluorescence measurement value when the SOS1 protein was not included was calculated as a background signal value, and the background signal value was subtracted from all of the measured HTRF values. The fluorescence measurement value when the synthesized compound was not included was measured as a control value, and this value was selected as a reference point of 100%. For each of the example compounds, fluorescence was measured at concentrations of 1.6, 8, 40, 200, and 1,000 nM (5 points, 5-fold), and the 50% activity inhibition value (IC50) of each of the compounds was calculated using GraphPad Prism. When the IC50 value was 50 nM or less, the inhibitory ability was denoted as +++. When the IC50 value was more than 50 nM and 100 nM or less, the inhibitory ability was denoted as ++. When the IC50 value was more than 100 nM, the inhibitory ability was denoted as +.
`COc1cc2c(N[C@H](C)c3cc(N)cc(C(F)F)c3F)nc(C)nc2cc1C(=O)N1CCOCC1` [Example 26, (R)-(4-((1-(5-amino-3-(difluoromethyl)-2-fluorophenyl)ethyl)amino)-6-methoxy 2-methylquinazolin-7-yl)(morpholino)methanone] yielded a half-inhibitory concentration (IC50) of at most 50 nM.
The result for `Cc1nc(N[C@H](C)c2cc(N)cc(C(F)(F)F)c2)c2cc(O[C@H]3CCOC3)c(C(=O)N3CCOCC3)cc2n1` [Example 27, (4-(((R)-1-(3-amino-5-(trifluoromethyl)phenyl)ethyl)amino)-2-methyl-6-(((S)-tetrahydrofuran-3-yl)oxy)quinazolin-7-yl)(morpholino)methanone] reads 50 to 100 nM.
Regarding `COc1cc2c(N[C@H](C)c3cc(N)cc(-c4ccoc4)c3)nc(C)nc2cc1C(=O)N1CCOCC1` [Example 28, (R)-(4-((1-(3-amino-5-(furan-3-yl)phenyl)ethyl)amino)-6-methoxy-2-methylquinazolin-7-yl)(morpholino)methanone], the IC50 was at most 50 nM.
As to `COc1cc2c(N[C@H](C)c3cc(N)cc(C(F)F)c3)nc(C)nc2cc1C(=O)N1CCOCC1` [Example 29, (R)-(4-((1-(3-amino-5-(difluoromethyl)phenyl)ethyl)amino)-6-methoxy-2-methylquinazolin-7-yl)(morpholino)methanone], the half-maximal inhibitory concentration (IC50) was at most 50 nM.
The result for `COc1cc2c(N[C@H](C)c3cc(N)cc(-c4cncs4)c3)nc(C)nc2cc1C(=O)N1CCOCC1` [Example 30, (R)-(4-((1-(3-amino-5-(thiazole-5-yl)phenyl)ethyl)amino)-6-methoxy-2-methylquinazolin-7-yl)(morpholino)methanone] reads 50 to 100 nM.
The value for `CCNc1cc([C@@H](C)Nc2nc(C)nc3cc(C(=O)N4CCOCC4)c(OC)cc23)cc(C(F)(F)F)c1` [Example 31, (R)-(4-((1-(3-(ethylamino)-5-(trifluoromethyl)phenyl)ethyl)amino)-6-methoxy-2-methylquinazolin-7-yl)(morpholino)methanone] was 50 to 100 nM; that for `COCCOc1cc2c(N[C@H](C)c3cc(N)cc(C(F)(F)F)c3)nc(C)nc2cc1C(=O)N1CCOCC1` [Example 32, methyl (R)-(4-((1-(3-amino-5-(trifluoromethyl)phenyl)ethyl)amino)-6-(2-methoxyethoxy)-2-methylquinazolin-7-yl)(morpholino)methanone] was over 100 nM.
Turning to `COc1cc2c(N[C@H](C)c3cc(N)cc(C(F)(F)F)c3)nc(CF)nc2cc1C(=O)N1CCOCC1` [Example 33, (R)-(4-((1-(3-amino-5-(trifluoromethyl)phenyl)ethyl)amino)-2-(fluoromethyl)-6-methoxyquinazolin-7-yl)(morpholino)methanone], the IC50 was over 100 nM.
With `COc1cc2c(N[C@H](C)c3cc(N)cc(C(F)(F)F)c3)nc(C)nc2cc1CN1CCOCC1` [Example 34, (R)-N-(1-(3-amino-5-(trifluoromethyl)phenyl)ethyl)-6-methoxy-2-methyl-7-(morpholinomethyl)quinazoline-4-amine], the half-maximal inhibitory concentration (IC50) is over 100 nM.
In turn, `COc1cc2c(N[C@H](C)c3cc(N)cc(C(F)F)c3F)nc(C)nc2cc1CN1CCOCC1` [Example 35, (R)-N-(1-(5-amino-3-(difluoromethyl)-2-fluorophenyl)ethyl)-6-methoxy-2-methyl-7-(morpholinomethyl)quinazoline-4-amine] yielded an IC50 of at most 50 nM.
In turn, `COc1cc2c(N[C@H](C)c3cc(N)cc(C(F)(F)F)c3)nc(C)nc2cc1OC1CCOCC1` [Example 36] had an IC50 of 50 to 100 nM.
The value for `COc1cc2c(N[C@H](C)c3cc(N)cc(C(F)F)c3F)nc(C)nc2cc1OC1CCOCC1` [Example 37, (R)-N-(1-(5-amino-3-(difluoromethyl)-2-fluorophenyl)ethyl)-6-methoxy-2-methyl-7-((tetrahydro-2H-pyran-4-yl)oxy)quinazoline-4-amine] was over 100 nM.
Turning to `COc1cc2c(N[C@H](C)c3cc(N)cc(C(F)(F)F)c3)nc(C)nc2cc1OCC1CCOCC1` [Example 38, (R)-N-(1-(3-amino-5-(trifluoromethyl)phenyl)ethyl)-6-methoxy-2-methyl-7-((tetrahydro-2H-pyran-4-yl)methoxy)quinazoline-4-amine], the 50% inhibitory concentration (IC50) is over 100 nM.
Take `COc1cc2c(N[C@H](C)c3cc(N)cc(C(F)(F)F)c3)nc(C)nc2cc1OCC1COC1` [Example 39, (R)-N-(1-(3-amino-5-(trifluoromethyl)phenyl)ethyl)-6-methoxy-2-methyl-7-(oxetane-3-ylmethoxy)quinazoline-4-amine]: the concentration for half-maximal inhibition (IC50) is over 100 nM.
The value for `CNc1cc2c(N[C@H](C)c3cc(N)cc(C(F)(F)F)c3)nc(C)nc2cc1C(=O)N1CCOCC1` [Example 40, (R)-(4-((1-(3-amino-5-(trifluoromethyl)phenyl)ethyl)amino)-2-methyl-6-(methylamino)quinazoline-7-yl)(morpholino)methanone] was at most 50 nM; that for `Cc1nc(N[C@H](C)c2cc(N)cc(C(F)(F)F)c2)c2cc(N(C)C)c(C(=O)N3CCOCC3)cc2n1` [Example 41, (R)-(4-((1-(3-amino-5-(trifluoromethyl)phenyl)ethyl)amino)-6-(dimethylamino)-2-methylquinazoline-7-yl)(morpholino)methanone] was 50 to 100 nM.
`Cc1nc(N[C@H](C)c2cc(N)cc(C(F)(F)F)c2)c2cc(N3CCCC3)c(C(=O)N3CCOCC3)cc2n1` [Example 42, (R)-(4-((1-(3-amino-5-(trifluoromethyl)phenyl)ethyl)amino)-2-methyl-6-(pyrrolidin-1-yl)quinazoline-7-yl)(morpholino)methanone] came in with a 50% inhibitory concentration (IC50) of over 100 nM.
The result for `CNc1cc2c(N[C@H](C)c3cc(N)cc(C(F)F)c3F)nc(C)nc2cc1C(=O)N1CCOCC1` [Example 43, (R)-(4-((1-(5-amino-3-(difluoromethyl)-2-fluorophenyl)ethyl)amino)-2-methyl-6-(methylamino)quinazoline-7-yl)(morpholino)methanone] reads at most 50 nM.
`COCCNc1cc2c(N[C@H](C)c3cc(N)cc(C(F)(F)F)c3)nc(C)nc2cc1C(=O)N1CCOCC1` [Example 44, (R)-(4-((1-(3-amino-5-(trifluoromethyl)phenyl)ethyl)amino)-6-((2-methoxyethyl)amino)-2-methylquinazoline-7-yl)(morpholino)methanone] had an IC50 of 50 to 100 nM.
Turning to `Cc1nc(N[C@H](C)c2cc(N)cc(C(F)(F)F)c2)c2cc(NC3CCCC3)c(C(=O)N3CCOCC3)cc2n1` [Example 45, (R)-(4-((1-(3-amino-5-(trifluoromethyl)phenyl)ethyl)amino)-6-(cyclopentylamino)-2-methylquinazoline-7-yl)(morpholino)methanone], the IC50 lay within 50 to 100 nM.
`CCNc1cc2c(N[C@H](C)c3cc(N)cc(C(F)(F)F)c3)nc(C)nc2cc1C(=O)N1CCOCC1` [Example 46, (R)-(4-((1-(3-amino-5-(trifluoromethyl)phenyl)ethyl)amino)-6-(ethylamino)-2-methylquinazoline-7-yl)(morpholino)methanone] gave an IC50 of 50 to 100 nM.
As to `Cc1nc(N[C@H](C)c2cc(N)cc(C(F)(F)F)c2)c2cc(NC(C)C)c(C(=O)N3CCOCC3)cc2n1` [Example 47, (R)-(4-((1-(3-amino-5-(trifluoromethyl)phenyl)ethyl)amino)-6-(isopropylamino)-2-methylquinazoline-7-yl)(morpholino)methanone], the IC50 is 50 to 100 nM.
